The source of these data is patent publication US20230174530A1, “N-(PHENYLAMINOCARBONYL) TETRAHYDRO-ISOQUINOLINES AND RELATED COMPOUNDS AS MODULATORS OF GPR65” (PATHIOS THERAPEUTICS LIMITED, priority 2020, published 2023).

The target in this assay is T1, human recombinant GPR65 (Homo sapiens, UniProt Q8IYL9).
T1 construct: host or cells: 1321N1 human astrocytoma cells (1321N1-hrGPR65)
T1 sequence (Q8IYL9 whole entry): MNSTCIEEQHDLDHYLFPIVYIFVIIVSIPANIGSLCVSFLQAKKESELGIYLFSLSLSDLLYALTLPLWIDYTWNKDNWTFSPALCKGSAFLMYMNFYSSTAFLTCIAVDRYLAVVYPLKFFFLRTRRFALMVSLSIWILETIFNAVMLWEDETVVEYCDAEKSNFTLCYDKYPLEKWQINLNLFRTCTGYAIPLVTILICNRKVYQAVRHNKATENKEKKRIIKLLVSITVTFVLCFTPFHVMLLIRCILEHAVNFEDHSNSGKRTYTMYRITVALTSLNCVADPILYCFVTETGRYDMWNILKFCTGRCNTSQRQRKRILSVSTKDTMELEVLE
Kind of assay: Human GPR65 cAMP HTRF antagonist assay. The class given is cell-based. As to conditions: 1321N1-hrGPR65 cells stimulated at assay pH 7.2; suppression of cAMP rise; read-out: hGPR65 IC50. In outline:
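1321N1 astrocytoma cells stably expressing human GPR65, 2,000 per well in KRH with 1 mM IBMX and 200 μM EDTA, preincubated 30 min with compound at RT. Acid stimulation at pH 7.2 for 30 min, pH 7.9 as control. cAMP read by HTRF 665/620 ratio; IC50 from normalised 4-parameter fit.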
(In general: Time-resolved FRET reads energy transfer from a long-lived donor to a nearby acceptor.)
Regarding `Nc1nccc2c1CCN(C(=O)Nc1ccc(Cl)c(Cl)c1)C2` [Compound 119, 5-Amino-N-(3,4-dichlorophenyl)-3,4-dihydro-2,6-naphthyridine-2(1H)-carboxamide], the half-maximal inhibitory concentration (IC50) (as a rule, the concentration needed to halve the response being measured) is more than 5 µM. To `O=C(Nc1ccc(Cl)c(C(F)(F)F)c1)N1CCc2ncncc2C1` [Compound 5, N-(4-Chloro-3-(trifluoromethyl)phenyl)-7,8-dihydropyrido[4,3-d]pyrimidine-6(5H)-carboxamide] belongs 0.5 to 5 µM. To `Cc1cccc2c1CN(C(=O)Nc1ccc(Cl)c(C(F)(F)F)c1)CC2` [Compound 28, N-(4-Chloro-3-(trifluoromethyl)phenyl)-8-methyl-3,4-dihydroisoquinoline-2(1H)-carboxamide] belongs more than 5 µM; to `Cc1ccc2c(c1)CCN(C(=O)Nc1ccc(C(F)(F)F)c(Cl)c1)C2` [Compound 136, N-(3-Chloro-4-(trifluoromethyl)phenyl)-6-methyl-3,4-dihydroisoquinoline-2(1H)-carboxamide], 0.5 to 5 µM; to `O=C(Nc1ccc(C(F)(F)F)c(Cl)c1)N1CCc2cc(F)c(F)cc2C1` [Compound 108, N-(3-Chloro-4-(trifluoromethyl)phenyl)-6,7-difluoro-3,4-dihydroisoquinoline-2(1H)-carboxamide], less than 0.5 µM. With `O=C(Nc1ccc(Cl)c(Cl)c1)N1CCc2nccnc2C1` [Compound 23, N-(3,4-Dichlorophenyl)-7,8-dihydropyrido[3,4-b]pyrazine-6(5H)-carboxamide] the figure was more than 5 µM; with `Nc1cc2c(cn1)CCN(C(=O)Nc1ccc(Cl)c(Cl)c1)C2` [Compound 82, 7-Amino-N-(3,4-dichlorophenyl)-3,4-dihydro-2,6-naphthyridine-2(1H)-carboxamide], less than 0.5 µM; with `O=C(Nc1ccc(Cl)c(C(F)(F)F)c1)N1CCc2cc(Cl)ccc2C1` [Compound 53, 6-Chloro-N-(4-chloro-3-(trifluoromethyl)phenyl)-3,4-dihydroisoquinoline-2(1H)-carboxamide], less than 0.5 µM. Take `Cn1cc2c(cc1=O)CCN(C(=O)Nc1ccc(Cl)c(Cl)c1)C2` [Compound 92, N-(3,4-Dichlorophenyl)-7-methyl-6-oxo-3,4,6,7-tetrahydro-2,7-naphthyridine-2(1H)-carboxamide]: the concentration for half-maximal inhibition (IC50) is more than 5 µM. To `O=C(Nc1ccc(Cl)c(C(F)(F)F)c1)N1CCc2cnccc2C1` [Compound 13, N-(4-Chloro-3-(trifluoromethyl)phenyl)-3,4-dihydro-2,6-naphthyridine-2(1H)-carboxamide] belongs 0.5 to 5 µM. To `O=C(Nc1ccc(Cl)c(C(F)(F)F)c1)N1CCc2ncccc2C1` [Compound 21, N-(4-Chloro-3-(trifluoromethyl)phenyl)-7,8-dihydro-1,6-naphthyridine-6(5H)-carboxamide] belongs more than 5 µM; to `COc1cc2c(cn1)CCN(C(=O)Nc1ccc(Cl)c(Cl)c1)C2` [Compound 105, N-(3,4-Dichlorophenyl)-7-methoxy-3,4-dihydro-2,6-naphthyridine-2(1H)-carboxamide], more than 5 µM; to `O=C(Nc1ccc(Cl)c(C(F)(F)F)c1)N1CCc2oncc2C1` [Compound 25, N-(4-Chloro-3-(trifluoromethyl)phenyl)-6,7-dihydroisoxazolo[4,5-c]pyridine-5(4H)-carboxamide], 0.5 to 5 µM.
